Test results published in the NIST ThermoML archive (doi:10.1016/j.jct.2016.07.017).

Columns and labels:
[1] = for viscosity / mass density: 101.33 kPa; for viscosity / mass density / surface tension liquid-gas: Liquid; for viscosity: Falling or rolling sphere viscometry; for mass density: Vibrating tube method; for surface tension liquid-gas: Ring tensiometer
[2] = activity coefficient (dimensionless); of the first substance listed, at infinite dilution; xn = mol fraction of the nth substance listed; details: 101.33 kPa, Liquid, Chromatography, x1 = 0

CC[N+](C)(CC)CCOC.O=S(=O)([N-]S(=O)(=O)C(F)(F)F)C(F)(F)F
[1]
Details	mass density [kg/m3]	surface tension liquid-gas [mN/m]	viscosity [mPa·s]
288.15 K	1416.6	–	120.6
298.15 K	1407.33	33.6	70.96
308.15 K	1398.12	32.6	45.36
318.15 K	1389	32.1	30.96
328.15 K	1379.94	31.6	22.23
338.15 K	1370.78	31.3	16.58
348.15 K	1361.55	–	12.79
358.15 K	1352.39	–	10.18
368.15 K	1343.38	–	8.19

Details	Glass transition temperature [°C]
[1], Glass, DSC	-93.7

Cc1ccccc1 [toluene] + CC[N+](C)(CC)CCOC.O=S(=O)([N-]S(=O)(=O)C(F)(F)F)C(F)(F)F
[2]
Details	activity coefficient
318.15 K	1.47
328.15 K	1.48
338.15 K	1.5
348.15 K	1.52
358.15 K	1.53

O [water] + CC[N+](C)(CC)CCOC.O=S(=O)([N-]S(=O)(=O)C(F)(F)F)C(F)(F)F
[2]
Details	activity coefficient
318.15 K	1.9
328.15 K	1.73
338.15 K	1.6
348.15 K	1.46
358.15 K	1.32
